Structures can show the parent of a compound that is named as a salt.
System: Caspase-3/7 activity in HepG2 cells
Test: Caspase-3/7 activity test
Type: cell-based, human
Conditions: HepG2, 100 μM, one day; relative to Staurosporine maximum (100%) and no test reagent (0%)
Protocol: Human liver cancer-derived cell line HepG2 (ATCC No. HB-8065) was passaged using Dulbecco's Modified Eagle medium (DMEM; Invitrogen) containing 10% fetal bovine serum (FBS; TRACE SCIENTIFIC LTD.), 1 mmol/L sodium pyruvate (Invitrogen), 2 mmol/L L-glutamine (Invitrogen), 50 IU/mL penicillin (Invitrogen) and 50 μg/mL streptomycin (Invitrogen) at 5% CO2, 37° C. The test reagent was prepared with DMSO to 10 mM, and further diluted with DMEM medium containing 0.5% FBS, 1 mmol/L sodium pyruvate, 2 mmol/L L-glutamine, 50 IU/mL penicillin and 50 μg/mL streptomycin to a final concentration of DMSO of 0.1%. HepG2 (2×10^4 cells/well) was cultured on a 96 well white plate (Costar) with the test reagent at 5% CO2, 37° C. After culture for one day, the intracellular ATP content was measured using ATPLite™ (PerkinElmer Life Sciences). The results are shown in Table 4 (n23, average value±SD) as a relative value (%) to control (without addition of drug).
The Caspase-3/7 activity in the cells cultured for one day by a method similar to that in Experimental Example 3 was measured using Caspase-Glo 3/7 Assay (Promega). The results are shown in Table 4 (n≧3, average value SD) as relative activity (%) of each reagent based on the maximum value of Caspase-3/7 activity when exposed to Staurosporine (100%), and the activity without addition of a test reagent (0%).

Row | SMILES | Caspase-3/7 activity (%, 100 μM) [%]
1 | CNCc1cn(S(=O)(=O)c2ccc(C)nc2)c(-c2cccnc2F)c1F [Example 8, 1-{4-Fluoro-5-(2-fluoropyridin-3-yl)-1-[(6-methylpyridin-3-yl)sulfonyl]-1H-pyrrol-3-yl}-N-methylmethanamine 0.5 fumarate] | 2.4
2 | CNCc1cn(S(=O)(=O)c2cncc(F)c2)c(-c2cccnc2F)c1F [Example 5, 1-{4-Fluoro-5-(2-fluoropyridin-3-yl)-1-[(5-fluoropyridin-3-yl)sulfonyl]-1H-pyrrol-3-yl}-N-methylmethanamine hydrochloride] | 0.3
3 | CNCc1cn(S(=O)(=O)c2ccc(OC)cn2)c(-c2cccnc2F)c1F [Example 10, 1-{4-Fluoro-5-(2-fluoropyridin-3-yl)-1-[(5-methoxypyridin-2-yl)sulfonyl]-1H-pyrrol-3-yl}-N-methylmethanamine hydrochloride] | 0.9
4 | CNCc1cn(S(=O)(=O)c2cc(OC)ccn2)c(-c2cccnc2F)c1F [Example 4, 1-{4-Fluoro-5-(2-fluoropyridin-3-yl)-1-[(4-methoxypyridin-2-yl)sulfonyl]-1H-pyrrol-3-yl}-N-methylmethanamine hydrochloride] | −0.6
5 | CNCc1cn(S(=O)(=O)c2cc(C)ccn2)c(-c2cccnc2F)c1F [Example 2, 1-{4-Fluoro-5-(2-fluoropyridin-3-yl)-1-[(4-methylpyridin-2-yl)sulfonyl]-1H-pyrrol-3-yl}-N-methylmethanamine hydrochloride] | −1.1
6 | CNCc1cn(S(=O)(=O)c2ccc(F)cn2)c(-c2cccnc2F)c1F [Example 3, 1-{4-Fluoro-5-(2-fluoropyridin-3-yl)-1-[(5-fluoropyridin-2-yl)sulfonyl]-1H-pyrrol-3-yl}-N-methylmethanamine hydrochloride] | −0.5

Reference: US8969387B2, “Pyrrole compounds” (Takeda Pharmaceutical Company Limited, priority 2008, dated 2015)
